Measurements reported in paper PMC3736071, “Probing horseradish peroxidase catalyzed degradation of azo dye from tannery wastewater” (SpringerPlus, 2013).

Tested on: T1, horseradish peroxidase (HRP)
T1 construct: gene PRXC1A
Experiment: dye decolorization at […] nm, Lineweaver-Burk plot
Type: biochemical, Armoracia rusticana
Details: free HRP; H2O2 co-substrate (14 μL of 30% w/v per 3 mL, fixed); pH 6.6; 30°C; commercial dye; read-out: apparent Km

`O=S(=O)(O)c1cccc(N=Nc2ccc(N=Nc3ccc(Nc4ccccc4)c4c(S(=O)(=O)O)cccc34)c3ccccc23)c1` [C.I. Acid Blue 113] was tested. Which Km did it give?
The Km was 68 µM.
